Experimental findings from ChEMBL document CHEMBL3132801, “Meridianin G and its analogs as antimalarial agents” (Medchemcomm, 2013) are described below.

One data set concerns Leishmania donovani. Description: Antileishmanial activity against Leishmania donovani promastigotes after 48 hrs by Alamar Blue assay. The data set is classed as functional, organism-based. (In general: Resazurin is reduced to fluorescent resorufin, in cell work by metabolically active cells.)
For data set [1], the system named is Plasmodium falciparum. Description: Antimicrobial activity against Plasmodium falciparum W2 after 72 hrs by LDH activity assay. The data set is classed as functional, organism-based.
The test system of data set [2] is Plasmodium falciparum. Description: Antimicrobial activity against Plasmodium falciparum D6 after 72 hrs by LDH activity assay. The data set is classed as functional, organism-based.
The subject of the next data set is LLC-PK1. Nature of the data set: Cytotoxicity against a pig LLC-PK1 cells after 48 hrs by Neutral Red assay. The data set is classed as cell-based. The conditions noted are these: Sus scrofa, LLC-PK1, 48 h.
For a further data set, the system named is Vero. Nature of the data set: Cytotoxicity against african green monkey Vero cells after 48 hrs by Neutral Red assay. The data set is classed as cell-based. The settings on record: Chlorocebus sabaeus.
The subject of a further data set is HepG2. Nature of the data set: Cytotoxicity against human HepG2 cells after 48 hrs by Neutral Red assay. The data set is classed as cell-based. The conditions noted are these: HepG2, 48 h.
The nature of data set [3]: Selectivity index, ratio of IC50 for pig LLC-PK1 cells to IC50 for Plasmodium falciparum D6. The data set is classed as toxicity, cell-based. The settings on record: read-out: Ratio IC50.
Data set [4] is described as follows: Selectivity index, ratio of IC50 for african green monkey Vero cells to IC50 for Plasmodium falciparum D6. The data set is classed as toxicity, cell-based. The conditions noted are these: read-out: Ratio IC50.
Data set [5] in a line: Selectivity index, ratio of IC50 for human HepG2 cells to IC50 for Plasmodium falciparum D6. The settings on record: read-out: Ratio IC50. The data set is classed as toxicity, cell-based.
The nature of data set [6]: Selectivity index, ratio of IC50 for pig LLC-PK1 cells to IC50 for Plasmodium falciparum W2. The data set is classed as toxicity, cell-based. The conditions noted are these: read-out: Ratio IC50.
Data set [7] is described as follows: Selectivity index, ratio of IC50 for african green monkey Vero cells to IC50 for Plasmodium falciparum W2. The data set is classed as toxicity, cell-based. The conditions noted are these: read-out: Ratio IC50.
A short description of data set [8]: Selectivity index, ratio of IC50 for human HepG2 cells to IC50 for Plasmodium falciparum W2. The conditions noted are these: read-out: Ratio IC50. The data set is classed as toxicity, cell-based.
A further data set relates to Cryptococcus neoformans. Nature of the data set: Antimicrobial activity against Cryptococcus neoformans by NCCLS method. The data set is classed as functional, organism-based.
The mark [9] stands for this setting: Plasmodium falciparum, W2, 72 h, read-out: IC50.
The mark [10] stands for this setting: Plasmodium falciparum, D6, 72 h, read-out: IC50.
[11] abbreviates: Leishmania donovani, 48 h, read-out: IC50.

Values after ≈ are worked out from the molar mass of the structure shown. Active and inactive are the calls of the source.

On to `COc1cccc(C(=O)n2cc(-c3ccnc(N)n3)c3ccccc32)c1`, for which the result in the data set on Leishmania donovani, in the data set on Plasmodium falciparum [1] and in the data set on Plasmodium falciparum [2] was inactive.

For the compound `C[C@@H]1CC[C@H]2[C@@H](C)C(=O)O[C@@H]3O[C@@]4(C)CC[C@@H]1[C@]32OO4` [ARTEMISININ], the concentration for half-maximal inhibition (IC50) in the data set on Plasmodium falciparum [1] (setting [9]) and with Plasmodium falciparum [2] (setting [10]) was below 0.09 µM throughout.

Turning to `O=C1NC(c2c[nH]c3ccccc23)Nc2ccccc21` (configuration not stated), the outcome in the data set on Leishmania donovani, in the data set with Plasmodium falciparum [1] and in the data set with Plasmodium falciparum [2] was inactive.

Turning to `COc1cccc2c1C(=O)c1c(O)c3c(c(O)c1C2=O)C[C@@](O)(C(=O)CO)C[C@@H]3O[C@H]1C[C@H](N)[C@H](O)[C@H](C)O1` [DOXORUBICIN], the figures for the IC50 with LLC-PK1, with Vero and in the data set with HepG2 were below 1 µM, 7 µM and 2 µM, respectively.

On to `Cc1noc(C)c1Cn1cc(-c2ccnc(N)n2)c2ccccc21`, for which the IC50 entry in the data set with Leishmania donovani was “Not Active”; with LLC-PK1, above 78 µM; with Vero, above 78 µM; in the data set with HepG2 it was above 78 µM; with Plasmodium falciparum [1], “Not Active”; with Plasmodium falciparum [2] (setting [10]) it was 12.4 µM. Besides, the IC90 result in the data set on Leishmania donovani was “inactive”. For the same compound, the selectivity ratio in data set [3], in data set [4] and in [5] was above 6.3 each time.

On to `Nc1nccc(-c2cn(Cc3c4ccccc4cc4ccccc34)c3ccccc23)n1`, for which the IC50 is 80 µM in the data set with Leishmania donovani (setting [11]); above 63 µM with LLC-PK1; above 63 µM in the data set on Vero; above 63 µM with HepG2; 11 µM in the data set on Plasmodium falciparum [1] (setting [9]); 7.06 µM with Plasmodium falciparum [2] (setting [10]). For the same compound, the selectivity ratio was above 5.7 in data set [6]; above 5.7 in data set [7]; above 5.7 in data set [8]; above 8.9 in data set [3]; above 8.9 in data set [4]; above 8.9 in data set [5].

Consider `Nc1nccc(-c2c[nH]c3ccccc23)n1`, for which the IC50 entry in the data set on Leishmania donovani was “Not Active”; in the data set on LLC-PK1 it was 107 µM; with Vero, 119 µM; in the data set on HepG2, above 119 µM; with Plasmodium falciparum [1] (setting [9]), 4.44 µM; in the data set on Plasmodium falciparum [2] (setting [10]), 9.69 µM. Besides, the IC90 entry in the data set on Leishmania donovani was “inactive”. In addition, the selectivity ratio is above 24.1 in data set [6]; above 26.8 in data set [7]; above 26.8 in data set [8]; above 11.1 in data set [3]; above 12.3 in [4]; above 12.3 in data set [5].

Compound `O=c1[nH]c(-c2c[nH]c3ccc(I)cc23)nc2ccccc12` gave an IC90 with Leishmania donovani (Leishmania donovani, 48 h) of 14.2 µM. The IC50 in the data set on Leishmania donovani (setting [11]) was 9.17 µM; in the data set on LLC-PK1, above 65 µM; in the data set with Vero, above 65 µM; in the data set with HepG2, above 65 µM; with Plasmodium falciparum [1], “Not Active”; with Plasmodium falciparum [2] it was “Not Active”.

Take `Nc1nccc(-c2cn(C(=O)N3CCOCC3)c3ccccc23)n1`: the IC50 result in the data set on Leishmania donovani is “Not Active”; in the data set with LLC-PK1, above 77 µM; with Vero it was above 77 µM; with HepG2, above 77 µM; with Plasmodium falciparum [1] (setting [9]), 3.08 µM; in the data set on Plasmodium falciparum [2] (setting [10]) it was 4.01 µM. In addition, the IC90 result with Leishmania donovani was “inactive”. Moreover, the selectivity ratio in data set [6] is above 25.1; in data set [7] it was above 25.1; in data set [8], above 25.1; in [3] it was above 19.3; in [4] it was above 19.3; in data set [5], above 19.3.

Turning to `Nc1nccc(-c2cn(C(=O)c3ccccc3)c3ccccc23)n1`, the IC50 entry with Leishmania donovani was “Not Active”; in the data set with LLC-PK1, above 80 µM; in the data set with Vero, above 80 µM; in the data set with HepG2, above 80 µM; in the data set with Plasmodium falciparum [1] (setting [9]) it was 4.58 µM; with Plasmodium falciparum [2] (setting [10]), 11.4 µM. Further, in the data set on Leishmania donovani, the IC90 entry was “inactive”. The selectivity ratio in data set [6] is above 17.4; in data set [7] it was above 17.4; in data set [8] it was above 17.4; in data set [3] it was above 7; in [4], above 7; in data set [5], above 7.

On to `Cc1noc(C)c1Cn1cc(-c2ccnc(N)n2)c2cc(Br)ccc21`, for which the IC90 entry in the data set with Leishmania donovani is “inactive”. The IC50 in the data set with Leishmania donovani (setting [11]) is 107 µM; in the data set on LLC-PK1 it was above 63 µM; in the data set with Vero it was above 63 µM; with HepG2 it was above 63 µM; in the data set on Plasmodium falciparum [1] (setting [9]) it was 14.6 µM; in the data set on Plasmodium falciparum [2] (setting [10]) it was 9.62 µM. For the same compound, the selectivity ratio is above 4.3 in [6]; above 4.3 in [7]; above 4.3 in data set [8]; above 6.5 in data set [3]; above 6.5 in data set [4]; above 6.5 in [5].

Consider `CN1CCN(C(=O)n2cc(-c3ccnc(N)n3)c3cc(Br)ccc32)CC1`, for which it took 108 µM to reach the 90% level with Leishmania donovani (Leishmania donovani, 48 h) (IC90). In addition, the IC50 in the data set on Leishmania donovani (setting [11]) is 40.5 µM; in the data set with LLC-PK1 it was above 60 µM; in the data set on Vero, above 60 µM; with HepG2 it was above 60 µM; in the data set with Plasmodium falciparum [1] it was “Not Active”; with Plasmodium falciparum [2], “Not Active”.

Turning to `Nc1nccc(-c2cn(Cc3c4ccccc4cc4ccccc34)c3ccc(Br)cc23)n1`, the IC50 entry is “Not Active” with Leishmania donovani; above 52 µM in the data set with LLC-PK1; above 52 µM in the data set with Vero; above 52 µM in the data set on HepG2; 11.6 µM with Plasmodium falciparum [1] (setting [9]); 11.1 µM in the data set with Plasmodium falciparum [2] (setting [10]). The IC90 entry with Leishmania donovani is “inactive”. Besides, the selectivity ratio was above 4.5 in data set [6]; above 4.5 in data set [7]; above 4.5 in [8]; above 4.7 in data set [3]; above 4.7 in data set [4]; above 4.7 in [5].

In the data set on Leishmania donovani (Leishmania donovani, 48 h), `N=C(N)c1ccc(OCCCCCOc2ccc(C(=N)N)cc2)cc1` [PENTAMIDINE] had an IC90 of 6.21 µM.

Consider `C[C@@H]1[C@H](O)[C@@H](C)/C=C/C=C/C=C/C=C/C=C/C=C/C=C/[C@H](O[C@@H]2O[C@H](C)[C@@H](O)[C@H](N)[C@@H]2O)C[C@@H]2O[C@](O)(C[C@@H](O)C[C@@H](O)[C@H](O)CC[C@@H](O)C[C@@H](O)CC(=O)O[C@H]1C)C[C@H](O)[C@H]2C(=O)O` [AMPHOTERICIN B], for which, in the data set on Cryptococcus neoformans, the minimum bactericidal concentration (MBC) came out at 1.35 µM (≈ 1.25 µg/mL) and it took 1.35 µM (≈ 1.25 µg/mL) to inhibit growth (MIC). It took 0.35 µM to reach the 90% level in the data set on Leishmania donovani (Leishmania donovani, 48 h) (IC90).

With `Nc1nccc(-c2cn(C(=O)N3CCOCC3)c3ccc(Br)cc23)n1`, the result in the data set on Leishmania donovani, in the data set with Plasmodium falciparum [1] and in the data set on Plasmodium falciparum [2] was inactive.

For the compound `CN1CCN(C(=O)n2cc(-c3ccnc(N)n3)c3ccccc32)CC1`, the IC50 entry in the data set with Leishmania donovani is “Not Active”; in the data set on LLC-PK1, above 74 µM; with Vero, above 74 µM; in the data set with HepG2, above 74 µM; in the data set with Plasmodium falciparum [1] (setting [9]) it was 14.5 µM; in the data set on Plasmodium falciparum [2] (setting [10]), 9.63 µM. The IC90 entry in the data set on Leishmania donovani is “inactive”. Also, the selectivity ratio was above 5.1 in [6]; above 5.1 in data set [7]; above 5.1 in data set [8]; above 7.7 in data set [3]; above 7.7 in data set [4]; above 7.7 in data set [5].

Broadly, the IC50 is the concentration at which inhibition is half-maximal. In general, IC90 refers to the point of the concentration-response curve where the effect stands at 90%. As usually defined, the MBC is the smallest concentration meeting the test's criterion for killing. In general, MIC refers to the smallest concentration in the dilution series that meets the test's criterion for growth inhibition.
